Laboratory results: patent US20040147459A1, “Method and composition for maintaining urinary tract health in the face of infections” (priority 2002, published 2004)

Assays:
E. coli = conditions: cited from earlier work
[1] = system: E. coli in the urinary tract; assay: doctor-run trials of mannose dosages in urinary tract infections; assay type: in vivo; conditions: 2 g three times a day for acute infections; maintenance 1 g one to two times per day
From the text: Because it is difficult for many people to remember a medication that must be taken this often, it is herein disclosed to change this model, as disclosed in the table in FIG. 2. For acute infections, the method is to give a 2-gram (1 teaspoon) dose of mannose three times a day with meals. The maintenance dosage is one-half teaspoon (1 gram) one to two times per day. Children's dosages are half of the adult dosage. For women who experience UTIs after sexual relations, one teaspoon is used an hour prior to intimate relations and an additional one teaspoon immediately following. This regimen provides a quantity of mannose sufficient to remove a majority of E. coli in the urinary tract, while improving the ease of use and compliance.

SMILES | effectiveness in binding to E. coli and inhibiting its attachment, relative to fructose (E. coli; compared with fructose) | effectiveness of the dosages in doctor-run trials [1] | binding to E. coli (E. coli; fructose contained in cranberry juice)
O=C[C@@H](O)[C@@H](O)[C@H](O)[C@H](O)CO [D-mannose] | ten times more effectively | effective | 
O=C(CO)[C@@H](O)[C@H](O)[C@H](O)CO [fructose, reference compound] |  |  | can also bind to E. coli
